# According to patent US9566312B2, “Cyclic peptides and use as medicines” (priority 2012, dated 2017):
# Read-outs that look alike come from different tables or passages of the source. Starred links: 1 amine or outer side, 2 acyl side, 3 side chain; linkers in the order of their positions; H or OH if unused. Non-standard residues stand in square brackets, D forms with d. Residues, ends and D or L forms follow the SMILES beside them. X78 = CC(C)N1CCN(CCOC[C@@H](C)[C@@H](C(=O)[*:2])N(C)[*:1])CC1; X1 = COC[C@@H]1CN(C[C@H](C)[C@@H](C(=O)[*:2])N(C)[*:1])CCO1; X72 = C[C@H](CCN1CCN(C2CCC2)CC1)[C@@H](C(=O)[*:2])N(C)[*:1]; NMe(dihydroBmt) = CCCC[C@@H](C)[C@@H](O)[C@H](NC)C(=O)O; X50 = C[C@H](CN1CCNC(=O)C1)[C@@H](C(=O)[*:2])N(C)[*:1]; X30 = C[C@H](CN1CCCOCC1)[C@@H](C(=O)[*:2])N(C)[*:1]; X43 = COCCN(C)C[C@@H](C)[C@@H](C(=O)[*:2])N(C)[*:1]; X65 = C[C@H](CCN1CCCCC1)[C@@H](C(=O)[*:2])N(C)[*:1]; X9 = C[C@@H](CN1CCOCC1)[C@@H](C(=O)[*:2])N(C)[*:1]; MeBmt = C/C=C/C[C@@H](C)[C@@H](O)[C@H](NC)C(=O)O; NMeL = CN[C@@H](CC(C)C)C(=O)O; NMeV = CN[C@H](C(=O)O)C(C)C; dNMeA = CN[C@H](C)C(=O)O; Abu = CC[C@H](N)C(=O)O
# Key:
# cyclophilin A (CypA) = cyclophilin A (CypA) (Homo sapiens (Human), UniProt P62937); experiment: Inhibitor binding to cyclophilin proteins by SPR, CypA; parameters: unit not given here; settings: 1:1 binding model;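 note: Single-cycle kinetics on a Biacore T200, compound injected at several concentrations for 1 min each at 50 µL/min, then 10 min dissociation, in HEPES pH 7.4 buffer with 3% DMSO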
# cyclophilin B (CypB) = cyclophilin B (CypB) (Homo sapiens (Human), UniProt P23284); experiment: Inhibitor binding to cyclophilin proteins by SPR, CypB; parameters: unit not given here; settings: 1:1 binding model
# How it was run: (§1)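 Running buffer: 10 mM HEPES pH 7.4, 150 mM NaCl, 0.05% P20, 3% DMSO, with compound present. Capture of avi-tagged mono-biotinylated cyclophilin; single-cycle series, 1 min contact, 10 min dissociation. Rates and affinity fitted to a 1:1 interaction model.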
# CypF = CypF (Homo sapiens (Human), UniProt P30405); experiment: Inhibitor binding to cyclophilin proteins by SPR, CypF; settings: 1:1 binding model
# How it was run: as §1
# [1] = system: genotype 1b subgenomic HCV replicon in Huh7.5 cells; assay type: cell-based, hepatitis C virus; settings: read-out: RPLN-1b IC50
# How it was run: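 Huh7.5 cells carrying genotype 1b subgenomic HCV replicon with renilla luciferase-neomycin reporter, in phenol red-free DMEM without G418. Luciferase measured after 72 h compound exposure relative to DMSO-treated cells; cytotoxicity (CC50) by Cell Titer-Glo.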
# [2] = system: peripheral blood mononuclear cells (PBMC); experiment: Anti-proliferative or immunosuppressive activity, BrdU incorporation in PHA-stimulated PBMC; assay type: cell-based; settings: PHA 3 μg/ml, 60 hour compound treatment; read-out: EMV PBMC IC50
# How it was run: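 Fresh PBMCs from two donors, 30,000 per well in X-VIVO 15 medium, stimulated with 3 μg/ml PHA to drive T-cell proliferation. Proliferation measured as BrdU incorporation into DNA by BrdU ELISA.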
# CYP3A4 = CYP3A4 (Homo sapiens (Human), UniProt P08684); experiment: Time-dependent inhibition of CYP3A4;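 note: Two-step in vitro assay, kobs derived from residual CYP3A4 activity versus preincubation time per concentration, then kinact and KI by nonlinear fit of kobs against concentration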
# Protocol: Method 5: Measuring Time-Dependent Inhibition of CYP3A4
# The CYP3A4 time dependent inhibition potential of various inhibitors was determined by a two step in vitro assay. […] The inactivation rate constant (kobs) was obtained by plotting the activity remaining over pre-incubation time for each concentration of compound. The maximal inactivation rate (kinact) and the inactivation potency (KI) were calculated by non linear regression analysis of the inactivation rate constant (kobs) versus compound concentrations [I] curve according to the equation kobs=[kinact·[I]]/[KI+[I]]
# [3] = biological target: organic anion transporting polypeptide 1B1 (OATP1B1) (Homo sapiens (Human), UniProt Q9Y6L6); experiment: OATP assay in CHO-OATP1B1 cells;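 note: inhibition of probe substrate uptake into the cells, ten minutes exposure, accumulated substrate read by fluorescence once cells were lysed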
# [4] = genotype 1b replicon, 72 h incubation
# Sequence of cyclophilin B (CypB) (P23284 34-216): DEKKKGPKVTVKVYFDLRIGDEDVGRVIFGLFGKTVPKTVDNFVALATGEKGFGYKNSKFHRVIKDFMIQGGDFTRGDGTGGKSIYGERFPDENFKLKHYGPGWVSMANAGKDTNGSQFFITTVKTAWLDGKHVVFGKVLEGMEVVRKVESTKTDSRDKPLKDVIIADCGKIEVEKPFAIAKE
# Sequence of CypF (P30405 30-207): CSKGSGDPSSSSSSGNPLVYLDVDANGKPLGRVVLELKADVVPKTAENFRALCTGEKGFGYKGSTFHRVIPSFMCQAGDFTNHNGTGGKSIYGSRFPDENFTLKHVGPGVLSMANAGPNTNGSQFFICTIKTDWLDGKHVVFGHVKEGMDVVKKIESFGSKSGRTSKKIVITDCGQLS
# Sequence of organic anion transporting polypeptide 1B1 (OATP1B1) (Q9Y6L6 whole entry): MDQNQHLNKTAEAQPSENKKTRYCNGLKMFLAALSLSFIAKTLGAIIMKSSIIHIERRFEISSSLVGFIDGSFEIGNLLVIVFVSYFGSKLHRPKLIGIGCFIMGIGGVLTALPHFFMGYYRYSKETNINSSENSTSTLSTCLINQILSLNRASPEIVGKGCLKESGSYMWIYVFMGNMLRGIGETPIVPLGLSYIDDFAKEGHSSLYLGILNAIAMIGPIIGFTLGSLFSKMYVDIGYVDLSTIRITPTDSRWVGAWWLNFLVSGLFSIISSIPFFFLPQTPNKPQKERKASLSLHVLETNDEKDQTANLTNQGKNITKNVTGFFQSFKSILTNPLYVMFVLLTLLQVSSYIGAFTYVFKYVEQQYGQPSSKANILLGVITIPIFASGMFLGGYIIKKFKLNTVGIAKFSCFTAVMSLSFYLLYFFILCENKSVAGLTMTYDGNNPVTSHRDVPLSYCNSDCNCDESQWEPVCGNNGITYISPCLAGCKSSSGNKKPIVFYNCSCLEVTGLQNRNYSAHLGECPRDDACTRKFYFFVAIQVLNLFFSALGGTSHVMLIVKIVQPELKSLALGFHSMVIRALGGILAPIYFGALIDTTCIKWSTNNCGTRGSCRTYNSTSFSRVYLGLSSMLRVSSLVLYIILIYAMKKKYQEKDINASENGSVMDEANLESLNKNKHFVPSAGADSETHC
# Sequence of cyclophilin A (CypA) (P62937 whole entry): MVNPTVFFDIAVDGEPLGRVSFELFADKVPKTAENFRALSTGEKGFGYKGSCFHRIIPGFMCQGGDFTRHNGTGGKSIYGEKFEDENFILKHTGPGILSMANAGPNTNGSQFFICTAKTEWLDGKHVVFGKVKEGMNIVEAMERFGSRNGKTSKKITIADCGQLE
# Sequence of CYP3A4 (P08684 whole entry): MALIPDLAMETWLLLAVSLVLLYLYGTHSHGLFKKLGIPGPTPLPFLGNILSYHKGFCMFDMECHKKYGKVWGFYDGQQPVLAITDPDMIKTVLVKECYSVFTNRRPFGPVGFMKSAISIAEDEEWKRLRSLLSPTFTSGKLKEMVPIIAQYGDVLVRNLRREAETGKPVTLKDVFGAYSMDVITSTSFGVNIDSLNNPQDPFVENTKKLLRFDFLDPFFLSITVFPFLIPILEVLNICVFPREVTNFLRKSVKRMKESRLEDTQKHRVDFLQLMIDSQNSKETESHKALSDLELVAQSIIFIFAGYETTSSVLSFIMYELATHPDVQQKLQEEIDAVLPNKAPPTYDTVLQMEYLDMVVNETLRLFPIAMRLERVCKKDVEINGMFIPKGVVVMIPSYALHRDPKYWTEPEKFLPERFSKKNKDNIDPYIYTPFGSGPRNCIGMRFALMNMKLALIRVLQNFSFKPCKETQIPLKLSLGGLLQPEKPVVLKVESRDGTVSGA
Compound,CypA Kd (cyclophilin A (CypA)),CypB Kd (cyclophilin B (CypB)),CypF Kd (CypF) [nM],"IC50 [1, 4] [nM]",IC50 [2] [µM],Ki (CYP3A4) [µM],IC50 [3] [nM],IC50 [1] [nM]
"C/C=C/C[C@@H](C)[C@@H](O)[C@H]1C(=O)N[C@@H](CC)C(=O)N(C)[C@H](C)C(=O)N(C)[C@@H]([C@@H](C)CN2CCO[C@H](COC)C2)C(=O)N[C@@H](C(C)C)C(=O)N(C)[C@@H](CC(C)C)C(=O)N[C@@H](C)C(=O)N[C@H](C)C(=O)N(C)[C@@H](CC(C)C)C(=O)N(C)[C@@H](CC(C)C)C(=O)N(C)[C@@H](C(C)C)C(=O)N1C [Compound 2.17.8, 3-[D-Ala]-4[(2S,3S)-2-Amino-4-((S)-2-methoxymethyl-morpholin-4-yl)-3-methyl-butanoyl]-cyclosporin] (cyclo(A[dA][NMeL][NMeL][NMeV][MeBmt][Abu][dNMeA][X1]V[NMeL]))",1.2,0.7,0.6,22,36.4,> 50,,
"C/C=C/C[C@@H](C)[C@@H](O)[C@H]1C(=O)N[C@@H](CC)C(=O)N(C)[C@H](C)C(=O)N(C)[C@@H]([C@H](C)CCN2CCOCC2)C(=O)N[C@@H](C(C)C)C(=O)N(C)[C@@H](CC(C)C)C(=O)N[C@@H](C)C(=O)N[C@H](C)C(=O)N(C)[C@@H](CC(C)C)C(=O)N(C)[C@@H](CC(C)C)C(=O)N(C)[C@@H](C(C)C)C(=O)N1C (stereo in doubt) [Compound 2.18.1, 3-[D-Ala]-4-[(2S,3R)-3-methyl-2-(methylamino)-5-morpholinopentanoyl]-cyclosporin]",1.5,0.8,0.9,22,16.2,> 50,,
"C/C=C/C[C@@H](C)[C@@H](O)[C@H]1C(=O)N[C@@H](CC)C(=O)N(C)[C@H](C)C(=O)N(C)[C@@H]([C@H](C)CCN2CCN(C3CCC3)CC2)C(=O)N[C@@H](C(C)C)C(=O)N(C)[C@@H](CC(C)C)C(=O)N[C@@H](C)C(=O)N[C@H](C)C(=O)N(C)[C@@H](CC(C)C)C(=O)N(C)[C@@H](CC(C)C)C(=O)N(C)[C@@H](C(C)C)C(=O)N1C [Compound 2.18.10, 3-[D-Ala]-4-[(2S,3R)-5-(4-cyclobutylpiperazin-1-yl)-3-methyl-2-(methylamino)pentanoyl]-cyclosporin] (cyclo(A[dA][NMeL][NMeL][NMeV][MeBmt][Abu][dNMeA][X72]V[NMeL]))",1.5,1.1,0.7,96,1.6,,2100,
"C/C=C/C[C@@H](C)[C@@H](O)[C@H]1C(=O)N[C@@H](CC)C(=O)N(C)[C@H](C)C(=O)N(C)[C@@H]([C@H](C)CN2CCCOCC2)C(=O)N[C@@H](C(C)C)C(=O)N(C)[C@@H](CC(C)C)C(=O)N[C@@H](C)C(=O)N[C@H](C)C(=O)N(C)[C@@H](CC(C)C)C(=O)N(C)[C@@H](CC(C)C)C(=O)N(C)[C@@H](C(C)C)C(=O)N1C [Compound 2.5.21, 3-[D-Ala]-4-[(2S,3R)-3-methyl-2-(methylamino)-4-(1,4-oxazepan-4-yl)butanoyl]-cyclosporin] (cyclo(A[dA][NMeL][NMeL][NMeV][MeBmt][Abu][dNMeA][X30]V[NMeL]))",1.9,0.9,0.8,37,4.5,,1700,
"C/C=C/C[C@@H](C)[C@@H](O)[C@H]1C(=O)N[C@@H](CC)C(=O)N(C)[C@H](C)C(=O)N(C)[C@@H]([C@H](C)CN(C)CCOC)C(=O)N[C@@H](C(C)C)C(=O)N(C)[C@@H](CC(C)C)C(=O)N[C@@H](C)C(=O)N[C@H](C)C(=O)N(C)[C@@H](CC(C)C)C(=O)N(C)[C@@H](CC(C)C)C(=O)N(C)[C@@H](C(C)C)C(=O)N1C [Compound 2.5.22, 3-[D-Ala]-4-[(2S,3R)-4-((2-methoxyethyl)(methyl)amino)-3-methyl-2-(methylamino)butanoyl]-cyclosporin] (cyclo(A[dA][NMeL][NMeL][NMeV][MeBmt][Abu][dNMeA][X43]V[NMeL]))",1.7,0.9,0.9,41,8.9,,1900,
"C/C=C/C[C@@H](C)[C@@H](O)[C@H]1C(=O)N[C@@H](CC)C(=O)N(C)[C@H](C)C(=O)N(C)[C@@H]([C@H](C)CN2CCNC(=O)C2)C(=O)N[C@@H](C(C)C)C(=O)N(C)[C@@H](CC(C)C)C(=O)N[C@@H](C)C(=O)N[C@H](C)C(=O)N(C)[C@@H](CC(C)C)C(=O)N(C)[C@@H](CC(C)C)C(=O)N(C)[C@@H](C(C)C)C(=O)N1C [Compound 2.5.30, 3-[D-Ala]-4-[(2S,3R)-3-methyl-2-(methylamino)-4-(3-oxopiperazin-1-yl)butanoyl]-cyclosporin] (cyclo(A[dA][NMeL][NMeL][NMeV][MeBmt][Abu][dNMeA][X50]V[NMeL]))",1.7,1.0,1.1,204,34.1,,2100,
"C/C=C/C[C@@H](C)[C@@H](O)[C@H]1C(=O)N[C@@H](CC)C(=O)N(C)[C@H](C(C)C)C(=O)N(C)C([C@H](C)COC)C(=O)N[C@@H](C(C)C)C(=O)N(C)[C@@H](CC(C)C)C(=O)N[C@@H](C)C(=O)N[C@H](C)C(=O)N(C)[C@@H](CC(C)C)C(=O)N(C)[C@@H](CC(C)C)C(=O)N(C)[C@@H](C(C)C)C(=O)N1C (stereo in doubt) [Compound 3.3, 3-[(R)-3-methyl-2-(methylamino)butanoyl]-4-[(2S,3S)-4-methoxy-3-methyl-2-(methylamino)butanoyl]-cyclosporin]",13.7,7.4,8.2,,13.2,,2000,100
"C/C=C/C[C@@H](C)[C@@H](O)[C@H]1C(=O)N[C@@H](CC)C(=O)N(C)[C@H](C)C(=O)N(C)[C@@H]([C@H](C)COCCN2CCN(C(C)C)CC2)C(=O)N[C@@H](C(C)C)C(=O)N(C)[C@@H](CC(C)C)C(=O)N[C@@H](C)C(=O)N[C@H](C)C(=O)N(C)[C@@H](CC(C)C)C(=O)N(C)[C@@H](CC(C)C)C(=O)N(C)[C@@H](C(C)C)C(=O)N1C [Compound 2.8.5, 3-[D-Ala]-4-[(2S,3S)-4-(2-(4-isopropylpiperazin-1-yl)ethoxy)-3-methyl-2-(methylamino)butanoyl]-cyclosporin] (cyclo(A[dA][NMeL][NMeL][NMeV][MeBmt][Abu][dNMeA][X78]V[NMeL]))",0.6,0.5,0.4,98.9,8.1,,4400,
"C/C=C/C[C@@H](C)[C@@H](O)[C@H]1C(=O)N[C@@H](CC)C(=O)N(C)[C@H](C)C(=O)N(C)[C@@H]([C@H](C)CCN2CCCCC2)C(=O)N[C@@H](C(C)C)C(=O)N(C)[C@@H](CC(C)C)C(=O)N[C@@H](C)C(=O)N[C@H](C)C(=O)N(C)[C@@H](CC(C)C)C(=O)N(C)[C@@H](CC(C)C)C(=O)N(C)[C@@H](C(C)C)C(=O)N1C [Compound 2.18.8, 3-[D-Ala]-4-[(2S,3R)-3-methyl-2-(methylamino)-5-(piperidin-1-yl)pentanoyl]-cyclosporin] (cyclo(A[dA][NMeL][NMeL][NMeV][MeBmt][Abu][dNMeA][X65]V[NMeL]))",0.9,0.7,0.5,45,1,,2300,
"CCCC[C@@H](C)[C@@H](O)[C@H]1C(=O)N[C@@H](CC)C(=O)N(C)[C@H](C)C(=O)N(C)[C@@H]([C@@H](C)CN2CCOCC2)C(=O)N[C@@H](C(C)C)C(=O)N(C)[C@@H](CC(C)C)C(=O)N[C@@H](C)C(=O)N[C@H](C)C(=O)N(C)[C@@H](CC(C)C)C(=O)N(C)[C@@H](CC(C)C)C(=O)N(C)[C@@H](C(C)C)C(=O)N1C [Compound 2.17.7, 1-dihydro-3-[D-Ala]-4[(2S,3S)-2-Amino-3-methyl-4-morpholin-4-yl-butanoyl]-cyclosporin] (cyclo(A[dA][NMeL][NMeL][NMeV][NMe(dihydroBmt)][Abu][dNMeA][X9]V[NMeL]))",1.5,0.7,0.7,15,,> 50,,
"C/C=C/C[C@@H](C)[C@@H](O)[C@H]1C(=O)N[C@@H](CC)C(=O)N(C)[C@H](C)C(=O)N(C)[C@@H]([C@H](C)CCCN2CCC(OC)CC2)C(=O)N[C@@H](C(C)C)C(=O)N(C)[C@@H](CC(C)C)C(=O)N[C@@H](C)C(=O)N[C@H](C)C(=O)N(C)[C@@H](CC(C)C)C(=O)N(C)[C@@H](CC(C)C)C(=O)N(C)[C@@H](C(C)C)C(=O)N1C (stereo in doubt) [Compound 2.19.5, 3-[D-Ala]-4-[(2S,3R)-6-(4-methoxypiperidin-1-yl)-3-methyl-2-(methylamino)hexanoyl]-cyclosporin]",0.7,0.5,0.4,80,8.9,,4300,
